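Where inhibition never reached the appropriate level, the endpoint shown equals the highest concentration tested. Otherwise, values were interpolated linearly from a five-concentration, 48-hour dose response in 96-well plates. TGI denotes the concentration required for complete inhibition of growth.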
Experiments:
Assay in all cases: NCI anticancer screen, dose series, 48 h
M19-MEL melanoma = test system: M19-MEL melanoma
DLD-1 colon = test system: DLD-1 colon
NCI-H522 lung = test system: NCI-H522 lung
HT29 colon = test system: HT29 colon
MOLT-4 leukemia = test system: MOLT-4 leukemia
SK-MEL-2 melanoma = test system: SK-MEL-2 melanoma
UACC-257 melanoma = test system: UACC-257 melanoma
IGROV1 ovarian = test system: IGROV1 ovarian
SR leukemia = test system: SR leukemia
SNB-75 CNS = test system: SNB-75 CNS
SF-295 CNS = test system: SF-295 CNS
SK-MEL-28 melanoma = test system: SK-MEL-28 melanoma
OVCAR-5 ovarian = test system: OVCAR-5 ovarian
HCC-2998 colon = test system: HCC-2998 colon
UO-31 renal = test system: UO-31 renal
SNB-19 CNS = test system: SNB-19 CNS
EKVX NSCLC = test system: EKVX NSCLC
SN12C renal = test system: SN12C renal
KM12 colon = test system: KM12 colon
LXFL 529 NSCLC = test system: LXFL 529 NSCLC
RXF 393 renal = test system: RXF 393 renal
OVCAR-8 ovarian = test system: OVCAR-8 ovarian
HCT-15 colon = test system: HCT-15 colon
A549 NSCLC = test system: A549 NSCLC
TK-10 renal = test system: TK-10 renal
HCT-116 colon = test system: HCT-116 colon
UACC-62 melanoma = test system: UACC-62 melanoma
DMS 114 small cell lung = test system: DMS 114 small cell lung
LOX IMVI melanoma = test system: LOX IMVI melanoma
ACHN renal = test system: ACHN renal
HL-60(TB) leukemia = test system: HL-60(TB) leukemia
MALME-3M melanoma = test system: MALME-3M melanoma
DMS 273 small cell lung = test system: DMS 273 small cell lung
OVCAR-3 ovarian = test system: OVCAR-3 ovarian
KM20L2 colon = test system: KM20L2 colon
COLO 205 colon = test system: COLO 205 colon
SK-MEL-5 melanoma = test system: SK-MEL-5 melanoma
HOP-18 NSCLC = test system: HOP-18 NSCLC
786-0 renal = test system: 786-0 renal
SW-620 colon = test system: SW-620 colon
SF-268 CNS = test system: SF-268 CNS
K-562 leukemia = test system: K-562 leukemia
M14 melanoma = test system: M14 melanoma
XF 498 CNS = test system: XF 498 CNS
RPMI-8226 leukemia = test system: RPMI-8226 leukemia
U251 CNS = test system: U251 CNS
NCI-H23 lung = test system: NCI-H23 lung
SNB-78 CNS = test system: SNB-78 CNS
NCI-H460 lung = test system: NCI-H460 lung
CAKI-1 renal = test system: CAKI-1 renal
HOP-62 NSCLC = test system: HOP-62 NSCLC
NCI-H226 lung = test system: NCI-H226 lung
OVCAR-4 ovarian = test system: OVCAR-4 ovarian
SK-OV-3 ovarian = test system: SK-OV-3 ovarian

Compound `O=C(Cc1ccccc1)NN1C(=O)C(Cl)C1c1ccc([N+](=O)[O-])cc1` (centres undefined) has a TGI (M19-MEL melanoma) of over 100 µM, a TGI (DLD-1 colon) of over 100 µM and a TGI (NCI-H522 lung) of 76.3 µM. It also gave a TGI (HT29 colon) of over 100 µM, a TGI (MOLT-4 leukemia) of over 100 µM and a TGI (SK-MEL-2 melanoma) of over 100 µM. It also gave a TGI (UACC-257 melanoma) of over 100 µM, a TGI (IGROV1 ovarian) of over 100 µM and a TGI (SR leukemia) of over 100 µM. For the same compound, the TGI (SNB-75 CNS) was over 100 µM, the TGI (SF-295 CNS) was over 100 µM and the TGI (SK-MEL-28 melanoma) was over 100 µM. The TGI (OVCAR-5 ovarian) was over 100 µM, the TGI (HCC-2998 colon) was over 100 µM and the TGI (UO-31 renal) was over 100 µM. The TGI (SNB-19 CNS) was over 100 µM, the TGI (EKVX NSCLC) was over 100 µM and the TGI (SN12C renal) was over 100 µM. For the same compound, the TGI (KM12 colon) was over 100 µM, the TGI (LXFL 529 NSCLC) was over 100 µM and the TGI (RXF 393 renal) was over 100 µM. It also gave a TGI (OVCAR-8 ovarian) of over 100 µM, a TGI (HCT-15 colon) of over 100 µM and a TGI (A549 NSCLC) of over 100 µM. For the same compound, the TGI (TK-10 renal) was over 100 µM, the TGI (HCT-116 colon) was over 100 µM and the TGI (UACC-62 melanoma) was over 100 µM. It also gave a TGI (DMS 114 small cell lung) of over 100 µM, a TGI (LOX IMVI melanoma) of over 100 µM and a TGI (ACHN renal) of over 100 µM. For the same compound, the TGI (HL-60(TB) leukemia) was over 100 µM, the TGI (MALME-3M melanoma) was over 100 µM and the TGI (DMS 273 small cell lung) was over 100 µM. The TGI (OVCAR-3 ovarian) was over 100 µM, the TGI (KM20L2 colon) was over 100 µM and the TGI (COLO 205 colon) was over 100 µM. The TGI (SK-MEL-5 melanoma) was over 100 µM, the TGI (HOP-18 NSCLC) was over 100 µM and the TGI (786-0 renal) was over 100 µM. The TGI (SW-620 colon) was over 100 µM, the TGI (SF-268 CNS) was over 100 µM and the TGI (K-562 leukemia) was over 100 µM. The TGI (M14 melanoma) was over 100 µM, the TGI (XF 498 CNS) was over 100 µM and the TGI (RPMI-8226 leukemia) was over 100 µM. The TGI (U251 CNS) was over 100 µM, the TGI (NCI-H23 lung) was over 100 µM and the TGI (SNB-78 CNS) was over 100 µM. The TGI (NCI-H460 lung) was over 100 µM, the TGI (CAKI-1 renal) was over 100 µM and the TGI (HOP-62 NSCLC) was over 100 µM. For the same compound, the TGI (NCI-H226 lung) was over 100 µM, the TGI (OVCAR-4 ovarian) was over 100 µM and the TGI (SK-OV-3 ovarian) was over 100 µM.

— PubChem BioAssay (NCI)
